Where no end group is shown, it is not given here. [ ]: non-standard residue; d: D form.
What was measured:
[1] = tested on: phospho-Pyk2 in 8226 cells; test: Phospho-Pyk2 levels (immunoblot); format: cell-based
H929 cells [2] = test: Electron microscopy of double membrane vesicles; format: cell-based; conditions: 100 μg/ml, 4 hours
Description: H929 cells were treated with either 100 µg/ml HYD1 (FIG. 24A) or HYD1S (FIG. 24B) for four hours and processed for electron microscopy as described in materials and methods.
Electron Microscopy. H929 cells were treated for four hours with either 100 μg/ml HYD1 or HYD1S. After peptide treatment, the samples were fixed overnight in 2.5% glutaraldehyde in 0.1M phosphate buffer, pH 7.2 overnight at four degrees. Following fixation, the cells were rinsed 2 times for 10 minutes each in 0.1M phosphate buffer, pH 7.2, at 4° C. The cells were loosely pelleted in microcentrifuge tubes at 500×G for 3 minutes. The buffer was removed from the cells and replaced with 1% osmium tetroxide in the above buffer at 4° C. The cells were resuspended and post-fixed for 1 hour, then loosely pelleted and rinsed in the above buffer. This step was repeated for a total of 3 rinses of 5 minutes each, with the cells being resuspended after each buffer change. Cells were dehydrated through a graded series of acetone, 30%, 50%, 70%, and 95% acetone in water, 5 minutes per change with loose pelleting at 750×G for 5 minutes, then resuspension for each step. The cells were then dehydrated through three changes of 100% acetone, 10 minutes per change, with a 5 minute pelleting step at 1000×G, followed by resuspension in each step. […]

[3] = tested on: DUH-H prostate carcinoma cells; conditions: DeRoock et al. 2001; cited from earlier work
H929 cells [4] = test: Detection of apoptosis, annexin V staining and FACS, suspension culture; format: cell-based
Description: FIG. 17 is a graph showing that HYD1 induces apoptosis as a single agent in 8226 and H929 cells cultured in suspension. 8226 and H929 cells were either treated with varying concentrations of HYD1 or vehicle control (equal volume sterile double distilled water) for 24 hours and apoptotic cells were detected by FACS analysis of annexin V positive cells. HYD1 specific apoptosis equals cell death due to peptide minus any apoptosis detected in control cells.
200 μM ZVAD-FMK was added to H929 cells for 30 minutes prior to the addition of either 75 μg/ml HYD1S or 15 μM Melphalan. Apoptosis was measured 24 hours after drug treatment by annexin/PI staining and apoptotic cells were detected by FACS analysis. Three independent experiments were performed and shown is a representative experiment.
Detection of Apoptosis. […] Blood, 1999; 93:1658-1667). The assay was performed in triplicate and 3 independent experiments were performed. Caspase 3 and 8 activity was measured at 6 and 24 hrs post peptide treatment per manufactures' instructions (BD Biosciences, San Jose, Calif.). The caspase assays were performed in triplicate and repeated twice.
Myeloma cells were plated at a density of 400,000 cells per ml in a 24 well plate. Cells were treated with the indicated dose of the peptide for 24 hours. Following 24 hrs of peptide exposure, apoptotic cells were detected using Annexin V staining and FACS analysis. Ten thousand events were analyzed by flow cytometry (Becton Dickinson, San Jose, Calif.). Experiments were performed in triplicate and repeated twice. Shown is a representative figure.

H929 cells [5] = test: Cell adhesion to HS-5 bone marrow stroma cells (CMFDA fluorescence); format: cell-based; conditions: varying concentrations, 30 minutes pre-incubation, two hours adhesion
Description: (§1) FIGS. 31A and 31B are graphs showing that HYD1 blocks adhesion of 8226 but not H929 cells to the bone marrow stroma cell line HS-5. Varying concentrations of either HYD1, HYD1S or a 1:100 dilution of a β1 integrin functional blocking antibody was added to either (FIG. 31A) CMFDA labeled 8226 cells or (FIG. 31B) CMFDA labeled H929 cells for 30 minutes prior to adding fluorescently labeled cells to either HS-5 or BSA coated wells for two hours. Unadhered cells were gently removed and adherent cells were quantified by total fluorescence. The independent experiments were performed and similar results were obtained.
(§2) Quantification of cell adhesion to HS-5 bone marrow stroma cells. Adhesion of 8226 or H929 cells to the HS-5 bone marrow stromal cells was performed as previously described (Nefedova Y et al. Leukemia, 2003; 17:1175-1182). Briefly, HS-5 cells were plated at a density of 500,000 cell/ml in a 96 well plate overnight. […] Cells were then counted and placed at a density of one million cells per ml and varying concentrations of peptide were added for 30 minutes prior to addition of 100 μl of cells to either HS-5 or BSA coated plates. Cells were allowed to adhere for two hours and unbound cells were washed with three gentle washes and total fluorescence was detected by a Victor plate reader, at 485 nm excitation and 535 nm emission. […]

8226 cells = test: as above; format: cell-based; conditions: varying concentrations, 30 minutes pre-incubation, two hours adhesion
Description: as §1, §2

[6] = tested on: phospho Pyk2 in H929 cells; test: Phospho-Pyk2 levels in suspension culture (immunoblot); format: cell-based; conditions: H929 cells cultured in suspension
Source text: Based upon the observation that HYD1 increased melphalan induced apoptosis in suspension cultures, whether treatment with HYD1 inhibits phosphorylation of a downstream mediator of β1 integrin signaling (Pyk2) in suspension cultures was investigated.

## kikmviswkg ([dK][dI][dK][dM][dV][dI][dS][dW][dK]G) [HYD1]
[1]
  phospho-Pyk2 levels: decreased levels of phospho-Pyk2
H929 cells [2]
  formation of double membranes / vesicles (EM): increased formation of double membranes
[3]
  inhibition of adhesion to FN, laminin 1, laminin 5 and collagen V: inhibit adhesion
H929 cells [4]; H929 cells, 200 μM ZVAD-FMK 30 minutes prior, apoptosis at 24 hours, annexin/PI
  protection from induced cell death by pan caspase inhibitor ZVAD-FMK: only marginally protected
H929 cells [4]; H929 cells, 6 hours
  annexin V positive cells following 6 hours of treatment: can be detected
H929 cells [4]; H929 cells, suspension culture, single agent, 24 hours
  induction of annexin V positive cells: dose dependent induction of annexin V positive cells
H929 cells [4]; H929 cells, suspension, peptide with melphalan
  melphalan-induced apoptosis in cells cultured in suspension: increased melphalan-induced apoptosis
H929 cells [4]; suspension culture
  sensitivity to HYD1 treatment, H929 compared to 8226 cells: H929 cells are more sensitive
H929 cells [5]
  blocking of H929 cells binding to HS-5 cells: no effect
8226 cells
  blocking of 8226 cells binding to HS-5 cells: partially blocked
[6]
  phospho Pyk2 levels: reduces phospho Pyk2 levels
